In patent US20160201075A1, “REGULATOR OF ALGAL LIPID METABOLISM AND CELLULAR […] ITS APPLICATIONS” (Board of Trustees of Michigan State University, priority 2014, published 2016):

Tested on: C. reinhardtii
Experiment: Growth in medium with 1 μM Rapamycin (time needed for division)
Format: cell-based, Chlamydomonas reinhardtii
Conditions: saturating concentration of Rapamycin (1 μM)
Source text: FIGS. 3A-3D illustrates the growth of cht7—expressing cells affected by different treatments. FIG. 3A graphically illustrates growth of cht7 and parental (dw15) lines on nitrogen-replete medium (optical density (OD) at 550 nm). Doubling times are given in parentheses. The grey bar indicates the OD at which nitrogen-replete samples were taken for all experiments in this study. Averages of three biological replicates are given with standard deviations for all points being smaller than 3%. FIG. 3B graphically illustrates growth of dw15, cht7, and four independent complementation lines (C1-4) during nitrogen deprivation (−N) followed by nitrogen resupply (+N) measured at the times indicted. Insert, cultures at 24 h following nitrogen resupply. FIG. 3C graphically illustrates growth during phosphate deprivation (−P) followed by phosphate resupply (+P). FIG. 3D graphically illustrates growth in the medium with 1 μM Rapamycin (+R) followed by the removal of Rapamycin (−R). Cultures were diluted twice (a) with medium containing 1 μM Rapamycin to avoid reaching stationary phase.
Growth under different nitrogen and phosphate regimes and following Rapamycin treatment, plating and viability assays, as well as lipid assays were performed using established methods.
Growth of the cht7 mutant was normal in nitrogen-replete medium under standard conditions (FIG. 3A). […]

CO[C@H]1C[C@@H]2CC[C@@H](C)[C@@](O)(O2)C(=O)C(=O)N2CCCC[C@H]2C(=O)O[C@H]([C@H](C)C[C@@H]2CC[C@@H](O)[C@H](OC)C2)CC(=O)[C@H](C)/C=C(\C)[C@@H](O)[C@@H](OC)C(=O)[C@H](C)C[C@H](C)/C=C/C=C/C=C/1C [Rapamycin]
time needed for division (cht7 mutant): 30.1 h | time needed for division (parental line (dw15)): 23.9 h
